Results as given in patent publication US20110286979A1, “CHEMOSENSITIZATION BY BI-FUNCTIONAL SMALL HAIRPIN RNA (bi-shRNA)” (GRADALIS, INC., priority 2010, published 2011).
Read-outs that look alike come from different tables or passages of the source.

Assays:
[1] = system: CCL-247 colorectal cancer cells; assay: BrdU Cell Proliferation Assay, docetaxel dose response with/without shRNA plasmid electroporation; type: cell-based, human; settings: for IC50: Homo sapiens
Description: Docetaxel storage stock was made in 10 mM, with DMSO as solvent in a biological safety cabinet for sterility purposes. Docetaxel solution was stored in 4° C. fridge away from direct light. For each experiment, docetaxel storage solution was brought to room temperature to thaw, about 30 min before usage. A 5 uM working solution was made and further diluted 1:50. To 9.8 ml complete CCL-247 media, 0.2 ml 5 uM working solution was added so that 10 ul of the solution into final volume of 100 ul will make 10 nM. The 10 nM solution was serially diluted to make 5 nM, 2.5 nM, 1.25 nM, 0.625 nM, and 0.3124 nM.
The CCL-247 media comprises HyClone McCoy's 5A medium 500 ml, FBS 50 ml, and L-Glutamine 10 ml. Under the biological cabinet, the above solutions were mixed into McCoy's 5A medium 500 ml bottle. The mixture was poured at the top part of filter, a vacuum pump was turned on to filter the mixed medium through. The media was stored at 4° C. after use.
The % growth inhibition is calculated as: […]

SK-Mel-28 melanoma cells = assay: as above; settings: Homo sapiens
Description: Cells are cultured and grown to sufficient amount for the studies. The shRNA plasmid transfection was performed by electroporation, in the dose of 50 ug/10 million cell. Finally the different ingredients were placed in 96-well plates (media, transfected cells with and without docetaxel, buffer) and incubated at 37° C. with 5% CO2. Growth inhibition was studied using the BrdU Cell Proliferation Assay kit at 24, 48, and 72 hrs.
The cell growth inhibition for each of treatment is calculated from direct OD reading. The % growth inhibition is calculated as:
% growth inhibition of control=ODtreated−ODtreatedNoBrdUcontrol/ODuntreated−ODuntreatedNoBrdUcontrol
wherein, ODtreated: OD reading from the shRNA plasmid and/or docetaxel treated reactant; ODtreatedNoBrdUcontrol: OD reading from the shRNA plasmid and/or docetaxel treated reactant, but without BrdU labeling; ODuntreated: OD reading from reactants without shRNA plasmid or docetaxel treatment; ODuntreatedNoBrdUcontrol: OD reading from reactants without shRNA plasmid or docetaxel treatment, and without BrdU labeling.
The % growth inhibition is calculated and plotted against treatment dose of docetaxel. From the plotted % growth inhibition IC50 is determined from curve for shRNA with/without docetaxel, as well as with docetaxel in different concentrations. IC50—half maximal inhibitory concentration, is a measure of the effectiveness of a compound (docetaxel for this study) in inhibiting biological function (cell growth for this study).

SMILES: CC(=O)O[C@@]12CO[C@@H]1C[C@H](O)[C@@]1(C)C(=O)[C@H](O)C3=C(C)[C@@H](OC(=O)[C@H](O)[C@@H](NC(=O)OC(C)(C)C)c4ccccc4)C[C@@](O)([C@@H](OC(=O)c4ccccc4)[C@H]21)C3(C)C [Docetaxel, docetaxel]
- cell growth compared to control ([1]; CCL-247, docetaxel alone 1.25 nM, 48 hrs): about 70%
- IC50 ([1]; 48 h, CCL-247, + pbi-shRNA^STMN1, 48 h, read-out: Docetaxel IC50 (mean ± SD)): 0.6 ± 0.4 nM
- IC50 ([1]; 48 h, CCL-247, no ShRNA, 48 h, read-out: Docetaxel IC50 (mean ± SD)): 1.8 ± 0.2 nM
- IC50 ([1]; 72 h, CCL-247, + pbi-shRNA^STMN1, 72 h, read-out: Docetaxel IC50 (mean ± SD)): 0.6 ± 0.4 nM
- IC50 ([1]; 72 h, CCL-247, + scrambled control, 72 h, read-out: Docetaxel IC50 (mean ± SD)): 1 ± 0.6 nM
- IC50 ([1]; 72 h, CCL-247, no ShRNA, 72 h, read-out: Docetaxel IC50 (mean ± SD)): 1 ± 0.4 nM
- IC50 ([1]; CCL-247, with STMN1 knockdown (bi-shRNA^STMN1), BrdU, n=3, read-out: IC50 of docetaxel): 0.6 ± 0.4 nM
- IC50 ([1]; CCL-247, without STMN1 knockdown, BrdU, n=3, read-out: IC50 of docetaxel): 1.8 ± 0.2 nM
- IC50 (SK-Mel-28 melanoma cells; SK-MEL-28, 48 h, read-out: Docetaxel IC50 (mean ± SD), SK-Mel-28, + pbi-shRNA^STMN1, 48 h): 0.1 nM
- IC50 (SK-Mel-28 melanoma cells; SK-MEL-28, 48 h, read-out: Docetaxel IC50 (mean ± SD), SK-Mel-28, + scrambled control, 48 h): 1 ± 0.2 nM
- IC50 (SK-Mel-28 melanoma cells; SK-MEL-28, 48 h, read-out: Docetaxel IC50 (mean ± SD), SK-Mel-28, no ShRNA, 48 h): 1.7 ± 2 nM
- IC50 (SK-Mel-28 melanoma cells; SK-MEL-28, 72 h, read-out: Docetaxel IC50 (mean ± SD), SK-Mel-28, + pbi-shRNA^STMN1, 72 h): 0.2 ± 0.1 nM
- IC50 (SK-Mel-28 melanoma cells; SK-MEL-28, 72 h, read-out: Docetaxel IC50 (mean ± SD), SK-Mel-28, + scrambled control, 72 h): 0.9 ± 0.2 nM
- IC50 (SK-Mel-28 melanoma cells; SK-MEL-28, 72 h, read-out: Docetaxel IC50 (mean ± SD), SK-Mel-28, no ShRNA, 72 h): 0.8 ± 0.2 nM
- IC50 (SK-Mel-28 melanoma cells; SK-MEL-28, read-out: IC50 of docetaxel, SK-Mel-28, with STMN1 knockdown (bi-shRNA^STMN1), BrdU, n=3): 0.1 nM
- IC50 (SK-Mel-28 melanoma cells; SK-MEL-28, read-out: IC50 of docetaxel, SK-Mel-28, without STMN1 knockdown, BrdU, n=3): 1.7 ± 0.2 nM
